Eleven compounds from ChEMBL document CHEMBL1201862, “PubChem BioAssay data set” (2004) can be followed below.

Among the test systems are HOP-92; SK-OV-3; SN12C; MOLT-4; A549; UO-31; CCRF-CEM; SK-MEL-28; OVCAR-5; HCT-116; DMS-273; SF-268; SW-620; SF-539; RXF 393; K562; U-251; HCT-15; HCC 2998; EKVX.
Assay in all cases: NCI anticancer screen, dose series, 48 h

Several values for one entry are separate records, joined by “and”; a condition that tells them apart may be missing. Equal entries are not always repeated.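 Assay format: 96-well plates, 48-hour exposure. At the GI50, growth is halved.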 Activity calls are given as the source filed them. No stated cut-off is given here; in the data, active = GI50 up to about 1.1 µM and inactive = higher. A value given as a limit tells only on which side of the number the result lay.

Consider `N#CC(NNC(=O)c1ccccc1O)c1ccccc1` (centres undefined), for which the GI50 in the assay on HOP-92 is 0.695 µM (active); in the assay on SK-OV-3, 3.62 µM (inactive); in the assay on SN12C it was 9.08 µM (inactive); in the assay on MOLT-4, 2.15 µM (inactive); in the assay with A549, 0.423 µM (active); in the assay with UO-31, 0.562 µM (active). In addition, the GI50 is 0.855 µM (active) in the assay on CCRF-CEM; > 100 µM (inactive) with SK-MEL-28; 22.1 µM (inactive) with OVCAR-5; 0.577 µM (active) in the assay with HCT-116; 0.468 µM (active) in the assay with DMS-273; 0.422 µM (active) in the assay with SF-268. Further, the GI50 is 8.02 µM (inactive) in the assay on SW-620; 3.33 µM (inactive) in the assay on SF-539; 1.03 µM (active) with RXF 393; 0.404 µM (active) with K562; 0.486 µM (active) in the assay on U-251; 2.73 µM in the assay on HCT-15.

For the compound `CCN(CC)CCNC(=O)c1nn(C)c(=S)[nH]c1=S`, the GI50 in the assay with HOP-92, in the assay with SK-OV-3, in the assay on SN12C, in the assay with MOLT-4, in the assay with A549 and in the assay with UO-31 was > 100 µM (inactive) each time. The GI50 in the assay on CCRF-CEM, in the assay on SK-MEL-28, with HCC 2998, in the assay on OVCAR-5, in the assay with HCT-116 and with DMS-273 was > 100 µM (inactive) throughout. For the same compound, the GI50 in the assay on EKVX, in the assay with SW-620, with SF-539, in the assay on RXF 393, in the assay on K562 and with U-251 was > 100 µM (inactive) throughout. The compound also registered a GI50 in the assay with HCT-15 of more than 100 µM.

Turning to `O=C1C2=C(C(c3ccccc3)=C1c1ccccc1)c1ccccc1C1(c3ccccc3)C2=C(O)C(c2ccccc2)=C1c1ccccc1` (centres undefined), the GI50 in the assay with HOP-92, with SK-OV-3, in the assay on SN12C, in the assay with MOLT-4, with A549 and with UO-31 was > 100 µM (inactive) in each case. Further, the GI50 in the assay with SK-MEL-28, in the assay on HCC 2998, in the assay with OVCAR-5, with HCT-116, with DMS-273 and in the assay with EKVX was > 100 µM (inactive) in each case. Further, the GI50 with SF-268 is > 100 µM (inactive); in the assay with SW-620, > 100 µM (inactive); in the assay on SF-539 it was > 100 µM (inactive); in the assay with RXF 393, > 100 µM (inactive); in the assay with U-251, > 100 µM (inactive); with HCT-15, more than 100 µM.

Regarding `N#Cc1c2c(c(N=P(c3ccccc3)(c3ccccc3)c3ccccc3)n3c1nc1ccccc13)CCCC2`, the GI50 was 40.9 µM (inactive) in the assay with SK-OV-3; 13.1 µM (inactive) with SN12C; 19.6 µM (inactive) in the assay on MOLT-4; 21.3 µM (inactive) in the assay on A549; 12.4 µM (inactive) in the assay with UO-31; 16.7 µM (inactive) in the assay with CCRF-CEM. In addition, the GI50 was 43.7 µM (inactive) with SK-MEL-28; 26.3 µM (inactive) in the assay on HCC 2998; 17.6 µM (inactive) with HCT-116; 14.5 µM (inactive) in the assay with DMS-273; 20 µM (inactive) in the assay with EKVX; > 100 µM (inactive) in the assay with SF-268. The GI50 in the assay on SW-620 was 20.8 µM (inactive); in the assay on SF-539 it was 45.1 µM (inactive); in the assay on RXF 393, 46.2 µM (inactive); with K562, 4.76 µM (inactive); in the assay with U-251, 14.4 µM (inactive); in the assay with HCT-15, 20.7 µM.

With `C[C@]12CC[C@H](O)CC1=CC[C@@H]1C2CC[C@]2(C)Nc3c(cnn3-c3ccccc3)CC12` (some centres undefined), the GI50 in the assay with SK-OV-3 was 4.07 µM (inactive); in the assay on MOLT-4 it was 1.5 µM (inactive); in the assay on A549 it was 3.43 µM (inactive); in the assay with UO-31, 5.51 µM (inactive); with CCRF-CEM, 3.01 µM (inactive); with SK-MEL-28, 2.86 µM (inactive). Also, the GI50 is 3.56 µM (inactive) in the assay with HCC 2998; 3.96 µM (inactive) with OVCAR-5; 3.01 µM (inactive) with HCT-116; 0.869 µM (active) with DMS-273; 6.07 µM (inactive) in the assay with EKVX; 2.6 µM (inactive) in the assay on SW-620. Further, the GI50 in the assay on SF-539 was 0.9 µM (active); with RXF 393, 0.441 µM (active); in the assay on K562, 2.61 µM (inactive); in the assay with U-251, 2.36 µM (inactive); in the assay with HCT-15, 2.23 µM.

Regarding `COC(=O)N/N=C(\Cc1ccccc1)CN(C)C`, the GI50 with HOP-92, in the assay with SK-OV-3, with MOLT-4, in the assay with A549, with CCRF-CEM and in the assay with SK-MEL-28 was > 100 µM (inactive) throughout. The GI50 in the assay with HCC 2998, in the assay with OVCAR-5, in the assay on HCT-116, in the assay with DMS-273, in the assay with EKVX and in the assay with SF-268 was > 100 µM (inactive) throughout. The GI50 in the assay with SW-620, in the assay with SF-539, in the assay with RXF 393, in the assay with K562 and in the assay with U-251 was > 100 µM (inactive) in each case.

Regarding `CC(C)(C)CC(C)(C)c1cc2c(O)c(c1)Cc1cc(C(C)(C)CC(C)(C)C)cc(c1O)Cc1cc(C(C)(C)CC(C)(C)C)cc(c1O)Cc1cc(C(C)(C)CC(C)(C)C)cc(c1O)Cc1cc(C(C)(C)CC(C)(C)C)cc(c1O)Cc1cc(C(C)(C)CC(C)(C)C)cc(c1O)C2`, the GI50 with HOP-92, in the assay on SN12C, in the assay on MOLT-4, in the assay on A549, with UO-31 and in the assay with CCRF-CEM was > 100 µM (inactive) throughout. The GI50 in the assay with SK-MEL-28, in the assay on HCC 2998, in the assay on OVCAR-5, with HCT-116, with DMS-273 and in the assay with EKVX was > 100 µM (inactive) in each case. Also, the GI50 in the assay with SF-268, in the assay on SW-620, in the assay with SF-539, in the assay on RXF 393, in the assay on K562 and in the assay with U-251 was > 100 µM (inactive) each time. In the assay on HCT-15, this compound had a GI50 of more than 100 µM.

As for `O=C(/C=C\c1cccc2ccccc12)c1cccc2ccccc12`, the GI50 with HOP-92 was > 10 µM (inactive); with SK-OV-3, > 10 µM (inactive); with SN12C it was 15.5 µM (inactive); with MOLT-4 it was 2.82 µM (inactive); in the assay with A549, 13.1 µM (inactive); in the assay on UO-31 it was 14.3 µM (inactive). The GI50 in the assay on CCRF-CEM is 3.3 µM (inactive); with SK-MEL-28 it was 8.17 µM (inactive); with HCC 2998, 13.1 µM (inactive); in the assay on OVCAR-5, > 10 µM (inactive); with HCT-116, 6.22 µM (inactive); with DMS-273 it was 9.08 µM (inactive). The GI50 is 14.3 µM (inactive) in the assay with EKVX; 3.37 µM (inactive) with SW-620; 14.3 µM (inactive) with SF-539; 5 µM (inactive) in the assay on RXF 393; 4.92 µM (inactive) in the assay with K562; 6.34 µM (inactive) in the assay on U-251. In the assay with HCT-15, this compound gave a GI50 of 4.03 µM.

`COC(=O)C1CC2(CC3=C1CCCC3)OCCO2` (centres undefined): the GI50 in the assay with HOP-92, with SK-OV-3, in the assay on SN12C, in the assay with A549, in the assay on UO-31 and in the assay on CCRF-CEM was > 100 µM (inactive) throughout. The GI50 with SK-MEL-28, with HCC 2998, in the assay on HCT-116, in the assay with DMS-273, in the assay with EKVX and in the assay with SF-268 was > 100 µM (inactive) each time. For the same compound, the GI50 with SW-620 was > 100 µM (inactive); with SF-539, > 100 µM (inactive); in the assay on RXF 393 it was > 100 µM (inactive); with K562, > 100 µM (inactive); with U-251 it was > 100 µM (inactive); with HCT-15, more than 100 µM.

As to `CCOC(=O)c1ccc(N2C(=O)/C(=C\OC)c3ccccc3C2=O)cc1`, the GI50 was 5.22 µM (inactive) in the assay with SK-OV-3; 24.5 µM (inactive) in the assay on SN12C; 25.5 µM (inactive) with MOLT-4; 43.3 µM (inactive) with A549; 15.5 µM (inactive) with UO-31; 24.7 µM (inactive) in the assay on SK-MEL-28. In addition, the GI50 with HCC 2998 was 46.2 µM (inactive); in the assay with OVCAR-5, 43.1 µM (inactive); in the assay with HCT-116 it was 34.6 µM (inactive); in the assay with DMS-273, 33.1 µM (inactive); in the assay on EKVX it was > 100 µM (inactive); with SF-268 it was 27.7 µM (inactive). For the same compound, the GI50 was 33.8 µM (inactive) in the assay with SW-620; 32.4 µM (inactive) in the assay on SF-539; 11.2 µM (inactive) in the assay on RXF 393; 34.2 µM (inactive) in the assay on K562; 22.7 µM (inactive) with U-251; 36 µM in the assay on HCT-15.

For the compound `CC(O)C1OC(n2ccc(=O)[nH]c2=O)CC1n1cncn1` (centres undefined), the GI50 was > 100 µM (inactive) in the assay with SK-OV-3; > 100 µM (inactive) with SN12C; > 100 µM (inactive) in the assay on MOLT-4; > 100 µM (inactive) with A549; > 100 µM (inactive) and 98.9 µM (inactive) in the assay on UO-31; > 100 µM (inactive) in the assay with CCRF-CEM. In addition, the GI50 with SK-MEL-28, in the assay on HCC 2998, in the assay on OVCAR-5, in the assay on HCT-116, in the assay with DMS-273 and with EKVX was > 100 µM (inactive) throughout. The GI50 in the assay with SF-268 is > 100 µM (inactive); in the assay on SW-620, > 100 µM (inactive); in the assay with RXF 393, > 100 µM (inactive); in the assay on K562 it was > 100 µM (inactive); with U-251, > 100 µM (inactive); in the assay on HCT-15 it was more than 100 µM.
